Assay: xn = mol fraction of the nth substance listed

CCCCCO + COC(=O)OC
101.3 kPa
Settings	viscosity [mPa·s]
293.15 K, x2 = 0.0482	3.367
293.15 K, x2 = 0.0991	2.836
293.15 K, x2 = 0.1941	2.11
293.15 K, x2 = 0.2974	1.605
293.15 K, x2 = 0.3939	1.304
293.15 K, x2 = 0.4993	1.092
293.15 K, x2 = 0.6	0.939
293.15 K, x2 = 0.7013	0.81
293.15 K, x2 = 0.8013	0.704
293.15 K, x2 = 0.8915	0.635
293.15 K, x2 = 0.9503	0.619
298.15 K, x2 = 0.0457	2.905
298.15 K, x2 = 0.1016	2.46
298.15 K, x2 = 0.1979	1.88
298.15 K, x2 = 0.3057	1.441
298.15 K, x2 = 0.4024	1.179
298.15 K, x2 = 0.503	0.988
298.15 K, x2 = 0.5793	0.878
298.15 K, x2 = 0.7034	0.739
298.15 K, x2 = 0.8003	0.655
298.15 K, x2 = 0.9018	0.597
298.15 K, x2 = 0.9494	0.586
303.15 K, x1 = 0.0192	0.542
303.15 K, x2 = 0.0539	2.488
303.15 K, x2 = 0.0906	2.228
303.15 K, x2 = 0.1979	1.66
303.15 K, x2 = 0.2613	1.416
303.15 K, x2 = 0.3902	1.066
303.15 K, x2 = 0.4928	0.89
303.15 K, x2 = 0.5918	0.759
303.15 K, x2 = 0.6923	0.661
303.15 K, x2 = 0.792	0.601
303.15 K, x2 = 0.8943	0.56
313.15 K, x2 = 0.0467	1.972
313.15 K, x2 = 0.1037	1.678
313.15 K, x2 = 0.2514	1.161
313.15 K, x2 = 0.3005	1.046
313.15 K, x2 = 0.3996	0.876
313.15 K, x2 = 0.5052	0.75
313.15 K, x2 = 0.6059	0.659
313.15 K, x2 = 0.7024	0.596
313.15 K, x2 = 0.8053	0.54
313.15 K, x2 = 0.9051	0.502
313.15 K, x2 = 0.9651	0.494

CCCCCO + CN(C)C=O
298.15 K, 101 kPa
Settings	viscosity [mPa·s]
x2 = 0.4261	1.395
x2 = 0.5467	1.568

O=[N+]([O-])c1ccccc1 + CCC(C)=O
303.15 K, 101 kPa
Settings	viscosity [mPa·s]
x2 = 0.1487	1.32
x2 = 0.3244	1.039
x2 = 0.4126	0.925
x2 = 0.4992	0.82
x2 = 0.7145	0.607
x2 = 0.78	0.55

c1ccccc1 + CCCCCCCCCC
Settings	viscosity [mPa·s]
298 K, 101 kPa, x1 = 0.5	0.6712
298.15 K, 101.33 kPa, x2 = 0.03584	0.6003
298.15 K, 101.33 kPa, x2 = 0.1004	0.5986
298.15 K, 101.33 kPa, x2 = 0.2013	0.6012
298.15 K, 101.33 kPa, x2 = 0.2902	0.613
298.15 K, 101.33 kPa, x2 = 0.3988	0.6372
298.15 K, 101.33 kPa, x2 = 0.5	0.6648
298.15 K, 101.33 kPa, x2 = 0.5943	0.6949
298.15 K, 101.33 kPa, x2 = 0.7021	0.7313
298.15 K, 101.33 kPa, x2 = 0.8353	0.7784
298.15 K, 101.33 kPa, x2 = 0.9165	0.8085
318 K, 101 kPa, x1 = 0.5	0.5262

ClC(Cl)=C(Cl)Cl + ClC(Cl)(Cl)Cl
Settings	viscosity [mPa·s]
298.15 K, 101 kPa, x2 = 0.0973	0.8311
298.15 K, 101 kPa, x2 = 0.1594	0.8241
298.15 K, 101 kPa, x2 = 0.244	0.8182
298.15 K, 101 kPa, x2 = 0.3103	0.8153
298.15 K, 101 kPa, x2 = 0.4139	0.813
298.15 K, 101 kPa, x2 = 0.4636	0.8122
298.15 K, 101 kPa, x2 = 0.5633	0.814
298.15 K, 101 kPa, x2 = 0.63	0.8216
298.15 K, 101 kPa, x2 = 0.6339	0.8211
298.15 K, 101 kPa, x2 = 0.7582	0.8392
298.15 K, 101 kPa, x2 = 0.8067	0.8482
298.15 K, 101 kPa, x2 = 0.9135	0.8744
303.15 K, 101.33 kPa, x1 = 0.3238	0.818
303.15 K, 101.33 kPa, x1 = 0.402	0.814
303.15 K, 101.33 kPa, x1 = 0.56	0.808
303.15 K, 101.33 kPa, x1 = 0.6543	0.801
303.15 K, 101.33 kPa, x1 = 0.7629	0.8
303.15 K, 101.33 kPa, x1 = 0.8308	0.798
303.15 K, 101.33 kPa, x1 = 0.9128	0.797

O=[N+]([O-])c1ccccc1 + C1COCCO1
303.15 K, 101 kPa
Settings	viscosity [mPa·s]
x1 = 0.0852	1.058
x1 = 0.1732	1.058
x1 = 0.265	1.087
x1 = 0.3592	1.107
x1 = 0.4563	1.148
x1 = 0.5574	1.212
x1 = 0.6625	1.274
x1 = 0.7711	1.369
x1 = 0.8829	1.47

CCOCCOCCO + ClC(Cl)=C(Cl)Cl
298.15 K, 101.33 kPa
Settings	viscosity [mPa·s]
x1 = 0.0123	0.859
x1 = 0.0256	0.874
x1 = 0.0478	0.903
x1 = 0.0645	0.928
x1 = 0.0824	0.956
x1 = 0.097	0.979
x1 = 0.1126	1.012
x1 = 0.1488	1.081
x1 = 0.1758	1.135
x1 = 0.2057	1.196
x1 = 0.2427	1.278
x1 = 0.2829	1.371
x1 = 0.3332	1.493
x1 = 0.3756	1.61
x1 = 0.4139	1.717
x1 = 0.4562	1.843
x1 = 0.4889	1.949
x1 = 0.5216	2.063
x1 = 0.5734	2.246
x1 = 0.6176	2.412
x1 = 0.6576	2.552
x1 = 0.6972	2.699
x1 = 0.7396	2.858
x1 = 0.8033	3.119
x1 = 0.854	3.335
x1 = 0.8945	3.519
x1 = 0.9227	3.64
x1 = 0.9398	3.718
x1 = 0.9556	3.786
x1 = 0.9736	3.873
x2 = 0.0112	3.936
